Patent publication US11512079B2, “Heterocycle substituted pyridine derivative antifungal agents” (Amplyx Pharmaceuticals, Inc., priority 2017, dated 2022)
Values after ≈ are worked out from the molar mass of the structure shown.

Legend:
Type in all cases: cell-based
Candida albicans 90028 = assay: In vitro antifungal assay (Example IX), microdilution broth, MIC; conditions: minimum inhibitory concentration (≥50% inhibition), 35° C., 40-48 h, RPMI1640
Summary of the method: (§1)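 Yeast inocula (2.5×10^3 cells/mL, RPMI1640) were exposed to twofold compound series reaching 2-0.0019 μg/mL final, per CLSI yeast methodology. Incubation at 35° C. ran 40-48 h for Candida albicans 90028 and 72 h for Cryptococcus neoformans H99. MIC endpoints were confirmed by absorbance at 600 nm.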

[1] = system: Cryptococcus neoformans H99; assay: as above; conditions: minimum inhibitory concentration (≥50% inhibition), 35° C., 72 h, RPMI1640
Summary of the method: as §1

Cryptococcus gattii = assay: as above; conditions: minimum inhibitory concentration (≥50% inhibition), 35° C., 72 h (Cryptococcus), RPMI1640
Summary of the method: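 MIC was determined from OD600 after 72 h at 35 °C for Cryptococcus, in RPMI1640 inoculated at 2.5×10^3 cells/mL. Compounds were tested as a 2-fold series from 2 to 0.0019 μg/mL final, added from DMSO intermediates at a 100-fold dilution.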

[2] = system: Rhizomucor pusillus 46342; assay: In vitro antifungal assay (Example IX), microdilution broth, MEC; conditions: minimum effective concentration (shortening of hyphae), 35° C., 40-48 h, RPMI1640
Summary of the method: (§2)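 Read-out is the minimum effective concentration: lowest compound level causing shorter hyphae than in DMSO controls, echinocandin-style. Broth microdilution used conidia or spores harvested from agar plates, cleared of mycelium and clumps, at a final 1-2×10^4 spores/mL in RPMI1640.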

[3] = system: Aspergillus fumigatus MYA3626; assay: as above; conditions: minimum effective concentration (shortening of hyphae), 35° C., 40-48 h, RPMI1640
Summary of the method: as §2

Row | MIC (Candida albicans 90028) | MIC [1] | MIC (Cryptococcus gattii) | Compound | minimal effective concentration [2] | minimal effective concentration [3]
1 | 0.01 to 0.1 µg/mL (≈ 0.0287 to 0.287 µM) | > 1 µg/mL | > 1 µg/mL | Nc1ncccc1-c1cc(Cc2ccc(OCc3ccco3)nc2)no1 [compound 73, 3-(3-((6-(furan-2-ylmethoxy)pyridin-3-yl)methyl)isoxazol-5-yl)pyridin-2-amine] | > 1 µg/mL | 0.1 to 1 µg/mL
2 | 0.01 to 0.1 µg/mL (≈ 0.0266 to 0.266 µM) | 0.01 to 0.1 µg/mL (≈ 0.0266 to 0.266 µM) | 0.01 to 0.1 µg/mL (≈ 0.0266 to 0.266 µM) | Nc1ncccc1-c1cc(Cc2ccc(NCc3ccccc3F)nc2)no1 [compound 74, 5-((5-(2-aminopyridin-3-yl)isoxazol-3-yl)methyl)-N-(2-fluorobenzyl)pyridin-2-amine] | > 1 µg/mL | 0.1 to 1 µg/mL
3 | 0.01 to 0.1 µg/mL (≈ 0.0263 to 0.263 µM) | 0.01 to 0.1 µg/mL (≈ 0.0263 to 0.263 µM) | 0.1 to 1 µg/mL (≈ 0.263 to 2.63 µM) | Nc1ncccc1-c1cc(Cc2ccc(Oc3ccc(F)cc3F)nc2)no1 [compound 75, 3-(3-((6-(2,4-difluorophenoxy)pyridin-3-yl)methyl)isoxazol-5-yl)pyridin-2-amine] | 0.1 to 1 µg/mL | 0.01 to 0.1 µg/mL
4 | 0.01 to 0.1 µg/mL (≈ 0.0256 to 0.256 µM) | 0.01 to 0.1 µg/mL (≈ 0.0256 to 0.256 µM) | 0.01 to 0.1 µg/mL (≈ 0.0256 to 0.256 µM) | Nc1ncccc1-c1cc(Cc2ccc(OCCc3ccccc3F)nc2)no1 [compound 77, 3-(3-((6-(2-fluorophenethoxy)pyridin-3-yl)methyl)isoxazol-5-yl)pyridin-2-amine] | 0.1 to 1 µg/mL | 0.1 to 1 µg/mL
5 | 0.01 to 0.1 µg/mL (≈ 0.0269 to 0.269 µM) | 0.01 to 0.1 µg/mL (≈ 0.0269 to 0.269 µM) | 0.01 to 0.1 µg/mL (≈ 0.0269 to 0.269 µM) | Nc1ncccc1-c1cc(Cc2ccc(OCCc3ccccc3)nc2)no1 [compound 78, 3-(3-((6-phenethoxypyridin-3-yl)methyl)isoxazol-5-yl)pyridin-2-amine] | 0.1 to 1 µg/mL | 0.1 to 1 µg/mL
6 | 0.01 to 0.1 µg/mL (≈ 0.0256 to 0.256 µM) | 0.01 to 0.1 µg/mL (≈ 0.0256 to 0.256 µM) | 0.1 to 1 µg/mL (≈ 0.256 to 2.56 µM) | Nc1ncccc1-c1cc(Cc2ccc(OCCc3ccc(F)cc3)nc2)no1 [compound 79, 3-(3-((6-(4-fluorophenethoxy)pyridin-3-yl)methyl)isoxazol-5-yl)pyridin-2-amine] | 0.1 to 1 µg/mL | 0.1 to 1 µg/mL
7 | ≤ 0.01 µg/mL | 0.01 to 0.1 µg/mL (≈ 0.0266 to 0.266 µM) | 0.01 to 0.1 µg/mL (≈ 0.0266 to 0.266 µM) | Nc1ncccc1-c1cc(Cc2ccc(OCc3cccc(F)c3)nc2)no1 [compound 80, 3-(3-((6-((3-fluorobenzyl)oxy)pyridin-3-yl)methyl)isoxazol-5-yl)pyridin-2-amine] | 0.1 to 1 µg/mL | ≤ 0.01 µg/mL
8 | 0.01 to 0.1 µg/mL (≈ 0.0263 to 0.263 µM) | ≤ 0.01 µg/mL | 0.01 to 0.1 µg/mL (≈ 0.0263 to 0.263 µM) | Nc1ncccc1-c1cc(Cc2ccc(Oc3cc(F)cc(F)c3)nc2)no1 [compound 81, 3-(3-((6-(3,5-difluorophenoxy)pyridin-3-yl)methyl)isoxazol-5-yl)pyridin-2-amine] | 0.1 to 1 µg/mL | 0.01 to 0.1 µg/mL
9 | 0.1 to 1 µg/mL (≈ 0.264 to 2.64 µM) | 0.01 to 0.1 µg/mL (≈ 0.0264 to 0.264 µM) | 0.01 to 0.1 µg/mL (≈ 0.0264 to 0.264 µM) | Cc1csc(COc2ccc(Cc3cc(-c4cccnc4N)on3)cn2)n1 [compound 82, 3-(3-((6-((4-methylthiazol-2-yl)methoxy)pyridin-3-yl)methyl)isoxazol-5-yl)pyridin-2-amine] | > 1 µg/mL | 0.01 to 0.1 µg/mL
10 | 0.01 to 0.1 µg/mL (≈ 0.0254 to 0.254 µM) | ≤ 0.01 µg/mL | 0.01 to 0.1 µg/mL (≈ 0.0254 to 0.254 µM) | Nc1ncccc1-c1cc(Cc2ccc(OCc3ccnc(Cl)c3)nc2)no1 [compound 83, 3-(3-((6-((2-chloropyridin-4-yl)methoxy)pyridin-3-yl)methyl)isoxazol-5-yl)pyridin-2-amine] | > 1 µg/mL | 0.01 to 0.1 µg/mL
11 | 0.01 to 0.1 µg/mL (≈ 0.0254 to 0.254 µM) | 0.01 to 0.1 µg/mL (≈ 0.0254 to 0.254 µM) | 0.1 to 1 µg/mL (≈ 0.254 to 2.54 µM) | Nc1ncccc1-c1cc(Cc2ccc(OCc3cc(F)cc(F)c3)nc2)no1 [compound 84, 3-(3-((6-((3,5-difluorobenzyl)oxy)pyridin-3-yl)methyl)isoxazol-5-yl)pyridin-2-amine] | 0.1 to 1 µg/mL | 0.01 to 0.1 µg/mL
12 | > 1 µg/mL | 0.1 to 1 µg/mL (≈ 0.278 to 2.78 µM) | 0.1 to 1 µg/mL (≈ 0.278 to 2.78 µM) | Nc1ncccc1-c1cc(Cc2ccc(/C=C/C3CCCCC3)cc2)no1 [compound 99, (E)-3-(3-(4-(2-cyclohexylvinyl)benzyl)isoxazol-5-yl)pyridin-2-amine] | > 1 µg/mL | 0.1 to 1 µg/mL
13 | 0.1 to 1 µg/mL (≈ 0.277 to 2.77 µM) | 0.1 to 1 µg/mL (≈ 0.277 to 2.77 µM) | 0.1 to 1 µg/mL (≈ 0.277 to 2.77 µM) | Nc1ncccc1-c1cc(Cc2ccc(CCC3CCCCC3)cc2)no1 [compound 100, 3-(3-(4-(2-cyclohexylethyl)benzyl)isoxazol-5-yl)pyridin-2-amine] | > 1 µg/mL | 0.1 to 1 µg/mL
14 | 0.1 to 1 µg/mL (≈ 0.28 to 2.8 µM) | 0.01 to 0.1 µg/mL (≈ 0.028 to 0.28 µM) | 0.01 to 0.1 µg/mL (≈ 0.028 to 0.28 µM) | Nc1ncccc1-c1cnn(Cc2ccc(OCc3ccccc3)nc2)c1 [compound 101, 3-(1-((6-(benzyloxy)pyridin-3-yl)methyl)-1H-pyrazol-4-yl)pyridin-2-amine] | > 1 µg/mL | 0.1 to 1 µg/mL
15 | 0.01 to 0.1 µg/mL (≈ 0.0279 to 0.279 µM) | 0.1 to 1 µg/mL (≈ 0.279 to 2.79 µM) | 0.01 to 0.1 µg/mL (≈ 0.0279 to 0.279 µM) | Nc1ncccc1-c1cc(Cc2ccc(COc3cccnc3)cc2)no1 [compound 105, 3-(3-(4-((pyridin-3-yloxy)methyl)benzyl)isoxazol-5-yl)pyridin-2-amine] | > 1 µg/mL | 0.1 to 1 µg/mL
16 | 0.01 to 0.1 µg/mL (≈ 0.0267 to 0.267 µM) | 0.1 to 1 µg/mL (≈ 0.267 to 2.67 µM) | 0.01 to 0.1 µg/mL (≈ 0.0267 to 0.267 µM) | Nc1ncccc1-c1cc(Cc2ccc(CNc3ccccc3F)cc2)no1 [compound 106, 3-(3-(4-(((2-fluorophenyl)amino)methyl)benzyl)isoxazol-5-yl)pyridin-2-amine] | 0.1 to 1 µg/mL | 0.01 to 0.1 µg/mL
17 | 0.01 to 0.1 µg/mL (≈ 0.0267 to 0.267 µM) | 0.01 to 0.1 µg/mL (≈ 0.0267 to 0.267 µM) | 0.01 to 0.1 µg/mL (≈ 0.0267 to 0.267 µM) | Nc1ncccc1-c1cc(Cc2ccc(CNc3cccc(F)c3)cc2)no1 [compound 107, 3-(3-(4-(((3-fluorophenyl)amino)methyl)benzyl)isoxazol-5-yl)pyridin-2-amine] | 0.01 to 0.1 µg/mL | 0.01 to 0.1 µg/mL
18 | 0.01 to 0.1 µg/mL (≈ 0.0255 to 0.255 µM) | 0.1 to 1 µg/mL (≈ 0.255 to 2.55 µM) | 0.1 to 1 µg/mL (≈ 0.255 to 2.55 µM) | Nc1ncccc1-c1cc(Cc2ccc(CNc3cccc(F)c3F)cc2)no1 [compound 108, 3-(3-(4-(((2,3-difluorophenyl)amino)methyl)benzyl)isoxazol-5-yl)pyridin-2-amine] | 0.1 to 1 µg/mL | 0.01 to 0.1 µg/mL
19 | 0.01 to 0.1 µg/mL (≈ 0.029 to 0.29 µM) | 0.01 to 0.1 µg/mL (≈ 0.029 to 0.29 µM) | ≤ 0.01 µg/mL | Nc1ncccc1-c1cc(Cc2ccc(Oc3ccccn3)cc2)no1 [compound 110, 3-(3-(4-(pyridin-2-yloxy)benzyl)isoxazol-5-yl)pyridin-2-amine] | 0.1 to 1 µg/mL | 0.01 to 0.1 µg/mL
20 | 0.1 to 1 µg/mL (≈ 0.274 to 2.74 µM) | 0.01 to 0.1 µg/mL (≈ 0.0274 to 0.274 µM) | 0.01 to 0.1 µg/mL (≈ 0.0274 to 0.274 µM) | Nc1ncccc1-c1cc(Cc2ccc(OCc3nccs3)cc2)no1 [compound 112, 3-(3-(4-(thiazol-2-ylmethoxy)benzyl)isoxazol-5-yl)pyridin-2-amine] | 0.1 to 1 µg/mL | 0.01 to 0.1 µg/mL
21 | 0.1 to 1 µg/mL (≈ 0.269 to 2.69 µM) | 0.1 to 1 µg/mL (≈ 0.269 to 2.69 µM) | 0.1 to 1 µg/mL (≈ 0.269 to 2.69 µM) | Cc1cncc(COc2ccc(Cc3cc(-c4cccnc4N)on3)cc2)c1 [compound 114, 3-(3-(4-((5-methylpyridin-3-yl)methoxy)benzyl)isoxazol-5-yl)pyridin-2-amine] | > 1 µg/mL | 0.01 to 0.1 µg/mL
22 | 0.1 to 1 µg/mL (≈ 0.266 to 2.66 µM) | 0.1 to 1 µg/mL (≈ 0.266 to 2.66 µM) | 0.1 to 1 µg/mL (≈ 0.266 to 2.66 µM) | Nc1ncccc1-c1cc(Cc2ccc(OCc3cncc(F)c3)cc2)no1 [compound 115, 3-(3-(4-((5-fluoropyridin-3-yl)methoxy)benzyl)isoxazol-5-yl)pyridin-2-amine] | > 1 µg/mL | 0.01 to 0.1 µg/mL
23 | 0.1 to 1 µg/mL (≈ 0.255 to 2.55 µM) | 0.01 to 0.1 µg/mL (≈ 0.0255 to 0.255 µM) | ≤ 0.01 µg/mL | Nc1ncccc1-c1cc(Cc2ccc(OCc3ccnc(Cl)c3)cc2)no1 [compound 117, 3-(3-(4-((2-chloropyridin-4-yl)methoxy)benzyl)isoxazol-5-yl)pyridin-2-amine] | > 1 µg/mL | 0.01 to 0.1 µg/mL
24 | 0.1 to 1 µg/mL (≈ 0.261 to 2.61 µM) | 0.1 to 1 µg/mL (≈ 0.261 to 2.61 µM) | 0.1 to 1 µg/mL (≈ 0.261 to 2.61 µM) | N#Cc1cccc(COc2ccc(Cc3cc(-c4cccnc4N)on3)cc2)n1 [compound 118, 6-((4-((5-(2-aminopyridin-3-yl)isoxazol-3-yl)methyl)phenoxy)methyl)picolinonitrile] | > 1 µg/mL | 0.1 to 1 µg/mL
25 | 0.01 to 0.1 µg/mL (≈ 0.0302 to 0.302 µM) | 0.01 to 0.1 µg/mL (≈ 0.0302 to 0.302 µM) | 0.01 to 0.1 µg/mL (≈ 0.0302 to 0.302 µM) | Nc1ncccc1-c1cc(Cc2ccc(Cc3ccoc3)cc2)no1 [compound 120, 3-(3-(4-(furan-3-ylmethyl)benzyl)isoxazol-5-yl)pyridin-2-amine] | 0.1 to 1 µg/mL | ≤ 0.01 µg/mL
26 | 0.01 to 0.1 µg/mL (≈ 0.0302 to 0.302 µM) | 0.01 to 0.1 µg/mL (≈ 0.0302 to 0.302 µM) | 0.01 to 0.1 µg/mL (≈ 0.0302 to 0.302 µM) | Nc1ncccc1-c1cc(Cc2ccc(Cc3ccco3)cc2)no1 [compound 121, 3-(3-(4-(furan-2-ylmethyl)benzyl)isoxazol-5-yl)pyridin-2-amine] | 0.01 to 0.1 µg/mL | ≤ 0.01 µg/mL
